Experiments:
[1] = cited from earlier work
clinical = settings: both, human, in vivo
Source text: All subjects agreed to participate in the study and were considered as healthy, all as determined through detection tests including medical history, physical examination, electrocardiogram, hematic biometry, blood chemistry with 24 elements, detection of drug abuse, general urine exam as well as hepatitis B and HIV tests. Vital signs were considered normal with blood pressure of 50-90/84-120 mmHg, heart rate of 50-100 pulses/min, breathing rate was 14-25 breaths/min, and tympanic temperature of 36-37.8° C. […] Smokers, pregnant women and subjects with a clinical history of hypersensitivity to drugs, foods or environmental substances were not included.
The prospective and longitudinal study was performed in a crossed and balanced, randomized design with two sequences, two periods, a single dose, single blind with a wash out period of 1 week between treatments. […] After dosing, serial blood samples were collected and vital signs monitored during a period of 24 hours. Blood samples of 10 mL each were extracted at 0, 0.25, 0.5, 0.75, 1, 1.25, 1.5, 1.75, 2, 3, 4, 6, 8, 12 and 24 hours after administration. Vital signs were measured at 0, 1, 2, 3, 4, 6, 8, 12 and 24 hours after dosing. Subjects were held for 36 hours and monitored for safety and adverse effects throughout the study. Volunteers received a diet calculated at 3000 cal/day in each period. […]

[2] = after two treatment periods, 26 volunteers, single dose; 7 in total, all light
Source text: All subjects agreed to participate in the study and were considered as healthy, all as determined through detection tests including medical history, physical examination, electrocardiogram, hematic biometry, blood chemistry with 24 elements, detection of drug abuse, general urine exam as well as hepatitis B and HIV tests. […] Smokers, pregnant women and subjects with a clinical history of hypersensitivity to drugs, foods or environmental substances were not included.
The prospective and longitudinal study was performed in a crossed and balanced, randomized design with two sequences, two periods, a single dose, single blind with a wash out period of 1 week between treatments. […] After dosing, serial blood samples were collected and vital signs monitored during a period of 24 hours. […] Vital signs were measured at 0, 1, 2, 3, 4, 6, 8, 12 and 24 hours after dosing. Subjects were held for 36 hours and monitored for safety and adverse effects throughout the study. Volunteers received a diet calculated at 3000 cal/day in each period.

Structure (SMILES)	Dietetic fat excreted in feces ([1]; in vivo)	Excreted in feces ([1]; in vivo) [%]	Oral bioavailability ([1]; metformin when fasting, orlistat administered orally)	Cmax (clinical; 500 mg) [ng/mL]	Tmax (clinical; po) [h]	Number of adverse effects [2]	Excreted with no changes in the urine ([1]; in vivo) [%]
CCCCCCCCCCC[C@@H](C[C@@H]1OC(=O)[C@H]1CCCCCC)OC(=O)[C@H](CC(C)C)NC=O [Orlistat]	up to 30%	~97	below 5%	–	–	–	–
CN(C)C(=N)N=C(N)N [Metformin]	–	–	–	1390 ± 440	2.41	3	~90

From patent US20150342921A1, “METFORMIN-ORLISTAT COMPOSITIONS” (LANDSTEINER SCIENTIFIC S.A. DE C.V., priority 2012, published 2015)
